Measured values as given in patent US20190350955A1, “METHODS AND PHARMACEUTICAL COMPOSITIONS FOR THE TREATMENT OF CARDIOMYOPATHIES” (INSERM (Institut National de la Sante et de la Recherche …, priority 2016, published 2019).

Key:
SRF^HKO mice = experiment: Echocardiography of SRF HKO mice on NR diet; type: in vivo, mouse
From the text: Transgenic mice. All experiments with animals conformed to the Directive 2010/63/EU of the European Parliament and were approved by the ethics committee Charles Darvin #5 (agreement 00369.01). SRF^HKO mice bear the tamoxifen-inducible α-MHC-MerCrMer transgene and the Siffloxed allele (Sf/Sf) as described previously (Parlakian et al. (2005). Temporally controlled onset of dilated cardiomyopathy through disruption of the SRF gene in adult heart. Journal 112, 2930-2939; Tritsch et al. (2013). An SRF/miR-1 axis regulates NCX1 and Annexin A5 protein levels in the normal and failing heart. Journal 98, 372-380). Transgenic mice have been bred for more than 20 generations in C57BL/6N background. The mice were housed in standard animal facility (CEF. Hôpital Pitié Salpétrière, agreement A-75-13-15, 75013 Paris), under a 12-h dark/light cycle. Tamoxifen (Sigma T5648) was administrated by i.p. injection at a dose of 0.7 mg diluted in 100 μl peanut oil at day (D) 0, D1 and D2. (Sf/Sf) littermates injected with tamoxifen at the same time than mutant were used as controls.
SRF^HKO and control (Sf/Sf) mice were administered either rodent maintenance SAFE A04 diet containing 3.10% crude fat. 16.10% crude proteins. 26% starch and 1.9% sugar (Scientific Animal Food Engineering, Paris, France) or SAFE # A04 diet supplemented with NR. NR was provided by Chromadex under brand name NIAGEN (Irvine Calif. USA). The soft pellets were manually prepared every 5 days by mixing 1.65 g of NR into 500 g of powdered SAFE A04 diet and 235 ml of water to reach 2.24 mg of NR/g (wet weight). Control diet was prepared in the same way omitting NR. Mice had ad libitum access to food and water. Mice (average body weight 31.3±0.82 g, no difference between groups) consumed an average of 6 g of soft food per day, reaching a daily intake of 450 mg NR/kg. No difference in food intake was observed between SRF^HKO and control mice.
Echocardiography was performed on lightly anesthetized mice given isoflurane (induction with 2% isoflurane 100% O2. and maintained with 0.5% isoflurance 100% O2). Non-invasive measurements of left ventricular dimensions were evaluated using Doppler echocardiography (Vivid 7 Dimension/Vivid7 PRO; GE Medical Systems) with a probe ultrasound frequency range of 9-14 MHz. The two-dimensionally guided time-motion recording mode (parasternal long-axis view) of the left ventricle (LV) provided the following measurements: diastolic and systolic septal (IVS) and posterior wall thicknesses (LVPW); internal end-diastolic (LVEDD) and end-systolic diameters (LVESD); and heart rate. Each set of measurements was obtained from the same cardiac cycle. At least 3 sets of measurements were obtained from 3 different cardiac cycles. LV fractional shortening (FS) was calculated using the formula: (LVEDD−LVESD)/LVEDD×100. LV myocardial volume (LVV), LV end-diastolic volume (EDV), and end-systolic volume (ESV) were calculated using a half-ellipsoid model of the LV. From these volumes, LV ejection fraction (EF) was calculated using, the formula: (EDV−ESV)/EDV×100. H/R ratio was calculated by the formula (PWThd+IVSThd)/LVEDd.

TAC mice = experiment: Myocardial NAD+ levels after TAC; type: in vivo, mouse; settings: 6 weeks after TAC, NR treated TAC group vs non treated CD TAC group
Protocol: Transverse aorta constriction was performed in 2 month-old male mice under anesthesia (ketamine 100 mg/kg, xylazin 16 mg/kg). Skin was opened above the sternum and the upper part of the sternum was cut on a length of 2 mm allowing the mouse to breath without the need of a ventilator. A surgical suture was passed under the aortic cross between the right brachiocephalic (innominate) artery and left common carotid artery and a 27-½ gauge blunt needle was placed parallel to the wall of the aortic cross as a calibrator. Two loose knots were tied around the aortic cross and the needle. The first knot was quickly tied against the needle, followed by the second and the needle was promptly removed in order to produce a constriction of 0.4 mm in diameter. In sham, mice the procedure was the same except for the constriction of the aorta. NR treatment was started 2 days after the TAC or SHAM surgery.
Tissue frozen powder was resuspended in 75% ethanol, 25% HEPES 10 mM pH 7.1, buffer (20 μl/mg of tissue). Extracts were warmed 5 min at 80° C., then directly cold on ice and centrifuge 5 min at 16 000 g. Tissues extracts were normalized on the weight of tissue used for extraction. […] After adjustment of dilution factors, NADH levels were calculated by substracting the NAD^+ concentration to the non-heated ethanolic extract values: NADH=NADt (non heated)−NAD^+ (heated). […]

[1] = NR diet, echocardiography D45 to D47

NC(=O)c1ccc[n+]([C@@H]2O[C@H](CO)[C@@H](O)[C@H]2O)c1 [NR, nicotinamide riboside]
LV ejection fraction (LVEF) (SRF^HKO mice; NR diet 0.22% from D5, echocardiography D45 to D47, ± S.D, non-treated SRF HKO 48.1, control mice 73.5): 64.8%±8.2 | LV contractile functions (LVEF and FS) (SRF^HKO mice; NR diet, D45 to D47): clearly protected | changes in stroke volume or cardiac output (SRF^HKO mice; NR diet, D45 to D47): not significant | dilatation of LV in systole and diastole (SRF^HKO mice; NR diet, D45 to D47): fully protected | reduction of the H/R ratio (eccentric remodeling) (SRF^HKO mice; NR diet, D45 to D47): fully prevented | thinning of the LV wall in systole and diastole (SRF^HKO mice; NR diet, D45 to D47, more efficiently at posterior wall than interventricular septum): reduced the thinning | LV mass index (SRF^HKO mice; [1]): did not induce any change | heart rate (SRF^HKO mice; [1]): did not induce any change | myocardial NAD+ levels (TAC mice): significantly higher
